In the NIST ThermoML archive (doi:10.1016/j.jct.2019.03.023):
Values joined by “and” are separate entries in the source; they are usually repeats but may differ in a detail not shown here. Equal entries are not always repeated. Numbers after ± are expanded uncertainties.

Assay: molar heat capacity at constant volume
Details: Vacuum adiabatic calorimetry

CC(C)O [propan-2-ol]
Fluid (supercritical or subcritical phases)
Details	molar heat capacity at constant volume
508.38 K, Mass density=274 kg/m3	423.79 ± 13 J/K/mol
508.38 K, Mass density=281.9 kg/m3	417.78 ± 13 J/K/mol
508.38 K, Mass density=288.99 kg/m3	404.68 ± 12 J/K/mol
508.38 K, Mass density=293.3 kg/m3	398.73 ± 12 J/K/mol
508.38 K, Mass density=343.1 kg/m3	178 ± 5.3 J/K/mol
508.47 K, Mass density=234.3 kg/m3	474.81 ± 14 J/K/mol
508.47 K, Mass density=255.8 kg/m3	454.98 ± 14 J/K/mol
508.47 K, Mass density=266.3 kg/m3	444.04 ± 13 J/K/mol
508.47 K, Mass density=274 kg/m3	437.73 ± 13 J/K/mol
508.47 K, Mass density=281.9 kg/m3	430.04 ± 13 J/K/mol
508.47 K, Mass density=288.99 kg/m3	411.05 ± 12 J/K/mol
508.47 K, Mass density=293.3 kg/m3	405.04 ± 12 J/K/mol
508.47 K, Mass density=324.5 kg/m3	207.09 ± 6.2 J/K/mol
508.47 K, Mass density=329.2 kg/m3	191.7 ± 5.8 J/K/mol
508.47 K, Mass density=343.1 kg/m3	175.96 ± 5.3 J/K/mol
508.51 K, Mass density=234.3 kg/m3	487.37 ± 15 J/K/mol and 279.44 ± 8.4 J/K/mol
508.56 K, Mass density=234.3 kg/m3	267.78 ± 8.1 J/K/mol
508.56 K, Mass density=255.8 kg/m3	471.14 ± 14 J/K/mol
508.56 K, Mass density=266.3 kg/m3	462.31 ± 14 J/K/mol
508.56 K, Mass density=274 kg/m3	451.49 ± 14 J/K/mol
508.56 K, Mass density=281.9 kg/m3	440.92 ± 13 J/K/mol
508.56 K, Mass density=288.99 kg/m3	425.11 ± 13 J/K/mol
508.56 K, Mass density=293.3 kg/m3	419.1 ± 13 J/K/mol
508.56 K, Mass density=324.5 kg/m3	206.31 ± 6.2 J/K/mol
508.56 K, Mass density=343.1 kg/m3	177.52 ± 5.3 J/K/mol
508.57 K, Mass density=329.2 kg/m3	186.9 ± 5.6 J/K/mol
508.61 K, Mass density=293.3 kg/m3	422.11 ± 13 J/K/mol
508.66 K, Mass density=234.3 kg/m3	258.83 ± 7.8 J/K/mol
508.66 K, Mass density=255.8 kg/m3	495.78 ± 15 J/K/mol
508.66 K, Mass density=266.3 kg/m3	484.85 ± 15 J/K/mol
508.66 K, Mass density=274 kg/m3	472.11 ± 14 J/K/mol
508.66 K, Mass density=281.9 kg/m3	456.18 ± 14 J/K/mol
508.66 K, Mass density=288.99 kg/m3	439.35 ± 13 J/K/mol
508.66 K, Mass density=293.3 kg/m3	428.48 ± 13 J/K/mol
508.66 K, Mass density=324.5 kg/m3	201.38 ± 6.1 J/K/mol
508.66 K, Mass density=343.1 kg/m3	178 ± 5.3 J/K/mol
508.67 K, Mass density=274 kg/m3	481 ± 14 J/K/mol
508.67 K, Mass density=329.2 kg/m3	188.1 ± 5.6 J/K/mol
508.68 K, Mass density=281.9 kg/m3	461.83 ± 14 J/K/mol
508.68 K, Mass density=293.3 kg/m3	434.49 ± 13 J/K/mol and 253.6 ± 7.6 J/K/mol
508.69 K, Mass density=255.8 kg/m3	507.8 ± 15 J/K/mol
508.69 K, Mass density=274 kg/m3	491.94 ± 15 J/K/mol
508.69 K, Mass density=288.99 kg/m3	447.41 ± 13 J/K/mol and 264.72 ± 7.9 J/K/mol
508.7 K, Mass density=255.8 kg/m3	524.03 ± 16 J/K/mol and 301.68 ± 9.1 J/K/mol
508.71 K, Mass density=266.3 kg/m3	520.48 ± 16 J/K/mol
508.71 K, Mass density=281.9 kg/m3	469.58 ± 14 J/K/mol and 277.46 ± 8.4 J/K/mol
508.72 K, Mass density=266.3 kg/m3	572.71 ± 17 J/K/mol and 337.73 ± 10 J/K/mol
508.72 K, Mass density=274 kg/m3	515.62 ± 16 J/K/mol and 304.08 ± 9.1 J/K/mol
508.72 K, Mass density=293.3 kg/m3	245.07 ± 7.3 J/K/mol
508.73 K, Mass density=255.8 kg/m3	293.08 ± 8.8 J/K/mol
508.74 K, Mass density=281.9 kg/m3	270.61 ± 8.1 J/K/mol
508.75 K, Mass density=234.3 kg/m3	245.01 ± 7.3 J/K/mol
508.75 K, Mass density=266.3 kg/m3	306.97 ± 9.2 J/K/mol
508.75 K, Mass density=288.99 kg/m3	247.77 ± 7.5 J/K/mol
508.75 K, Mass density=324.5 kg/m3	199.15 ± 6 J/K/mol
508.75 K, Mass density=343.1 kg/m3	175.96 ± 5.3 J/K/mol
508.76 K, Mass density=329.2 kg/m3	186.9 ± 5.6 J/K/mol
508.84 K, Mass density=234.3 kg/m3	238.7 ± 7.2 J/K/mol
508.84 K, Mass density=255.8 kg/m3	268.32 ± 8.1 J/K/mol
508.84 K, Mass density=266.3 kg/m3	281.06 ± 8.4 J/K/mol
508.84 K, Mass density=274 kg/m3	273.13 ± 8.2 J/K/mol
508.84 K, Mass density=281.9 kg/m3	250 ± 7.5 J/K/mol
508.84 K, Mass density=288.99 kg/m3	237.68 ± 7.2 J/K/mol
508.84 K, Mass density=293.3 kg/m3	231.97 ± 7 J/K/mol
508.84 K, Mass density=324.5 kg/m3	196.75 ± 5.9 J/K/mol
508.84 K, Mass density=343.1 kg/m3	176.44 ± 5.3 J/K/mol
508.94 K, Mass density=234.3 kg/m3	228.96 ± 6.9 J/K/mol
508.94 K, Mass density=255.8 kg/m3	253 ± 7.6 J/K/mol
508.94 K, Mass density=266.3 kg/m3	267.3 ± 8.1 J/K/mol
508.94 K, Mass density=274 kg/m3	261.53 ± 7.9 J/K/mol
508.94 K, Mass density=281.9 kg/m3	233.77 ± 7 J/K/mol
508.94 K, Mass density=288.99 kg/m3	223.91 ± 6.7 J/K/mol
508.94 K, Mass density=293.3 kg/m3	219.23 ± 6.6 J/K/mol
508.94 K, Mass density=324.5 kg/m3	197.11 ± 5.9 J/K/mol
509.02 K, Mass density=255.8 kg/m3	241.34 ± 7.3 J/K/mol
509.03 K, Mass density=266.3 kg/m3	252.46 ± 7.6 J/K/mol
509.03 K, Mass density=274 kg/m3	247.59 ± 7.5 J/K/mol
509.03 K, Mass density=281.9 kg/m3	225.96 ± 6.8 J/K/mol
509.03 K, Mass density=288.99 kg/m3	217.96 ± 6.6 J/K/mol
509.03 K, Mass density=293.3 kg/m3	209.73 ± 6.3 J/K/mol
509.03 K, Mass density=324.5 kg/m3	192.42 ± 5.8 J/K/mol
509.12 K, Mass density=234.3 kg/m3	213.22 ± 6.4 J/K/mol
509.12 K, Mass density=266.3 kg/m3	242.96 ± 7.3 J/K/mol
509.12 K, Mass density=274 kg/m3	238.4 ± 7.2 J/K/mol
509.12 K, Mass density=281.9 kg/m3	217.24 ± 6.6 J/K/mol

molar heat capacity at constant volume [J/K/mol]
Details	508.51 K	508.68 K	508.69 K	508.7 K	508.71 K	508.72 K
Gas	279.44 ± 9.6	–	–	301.68 ± 10	–	337.73 ± 15
Liquid	–	253.6 ± 8.3	264.72 ± 9	–	277.46 ± 9.9	304.08 ± 12
